Tests used:
Experiment in all cases: relative viability (nuclei count vs DMSO), 5 days (fraction); higher = more cells survive
[1] = compound: CCN1CCN(c2ccc(Nc3cc(N(C)C(=O)Nc4c(Cl)c(OC)cc(OC)c4Cl)ncn3)cc2)CC1 [BGJ398] + COc1cccc2cc(-c3nc([C@H]4CC[C@H](C(=O)O)CC4)n4ncnc(N)c34)[nH]c12 [OSI-027] (partner 0.5 µM)
Summary of the method: (§1)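 Medians of duplicate plates are given as relative viability. That measure is the nuclei count in treated wells divided by the count in vehicle wells. Counts were taken on 4× images of lung cancer cell lines in 1536-well plates, 5 days after pin-tool dosing the day after seeding with one drug alone or a fixed anchor-drug dose plus five library-drug doses (not always all listed) in √10 steps.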

[2] = compound: CCN1CCN(c2ccc(Nc3cc(N(C)C(=O)Nc4c(Cl)c(OC)cc(OC)c4Cl)ncn3)cc2)CC1 [BGJ398] + CC(=O)Nc1cccc(-n2c(=O)n(C3CC3)c(=O)c3c(Nc4ccc(I)cc4F)n(C)c(=O)c(C)c32)c1 [Trametinib] (partner 0.02 µM)
Summary of the method: as §1

[3] = compound: C1=CC2=NC=CN=C2C=C1/C=C/3\C(=O)NC(=O)S3 + O=C(c1cc(Cc2n[nH]c(=O)c3ccccc23)ccc1F)N1CCN(C(=O)C2CC2)CC1 [Olaparib] (partner 8 µM)
Summary of the method: as §1

[4] = compound: CCN1CCN(c2ccc(Nc3cc(N(C)C(=O)Nc4c(Cl)c(OC)cc(OC)c4Cl)ncn3)cc2)CC1 [BGJ398] + C[C@@H](Oc1cc(-c2cnn(C3CCNCC3)c2)cnc1N)c1c(Cl)ccc(F)c1Cl [Crizotinib] (partner 1 µM)
Summary of the method: as §1

Cell Line	relative viability ([1]; first compound 0.01 µM)	relative viability ([1]; first compound 0.03162 µM)	relative viability ([1]; first compound 0.1 µM)	relative viability ([1]; first compound 0.3162 µM)	relative viability ([1]; first compound 1 µM)	relative viability ([2]; first compound 0.01 µM)	relative viability ([2]; first compound 0.03162 µM)	relative viability ([2]; first compound 0.1 µM)	relative viability ([2]; first compound 0.3162 µM)	relative viability ([2]; first compound 1 µM)	relative viability ([3]; first compound 0.02 µM)	relative viability ([3]; first compound 0.06325 µM)	relative viability ([3]; first compound 0.2 µM)	relative viability ([3]; first compound 0.6325 µM)	relative viability ([3]; first compound 2 µM)	relative viability ([4]; first compound 0.01 µM)	relative viability ([4]; first compound 0.03162 µM)	relative viability ([4]; first compound 0.1 µM)	relative viability ([4]; first compound 0.3162 µM)	relative viability ([4]; first compound 1 µM)
NCI-H2342	0.694	0.628	0.629	0.674	0.622	1.04	0.906	0.893	1.03	0.978	0.396	0.403	0.449	0.415	0.373					
SK-MES-1	0.589	0.693	0.594	0.565	0.69	0.525	0.591	0.534	0.574	0.63	0.677	0.793	0.846	0.796	0.657	0.944	1.05	1	0.942	0.967
HCC-366	0.843	0.964	0.96	0.822	0.979	0.309	0.375	0.387	0.311	0.325	0.318		0.374	0.351	0.373	0.474	0.66	0.768	0.627	0.59
201T	0.781	0.825	0.793	0.636	0.564	0.817	0.696	0.688	0.643	0.693	0.878	0.81	0.844	0.828	0.866	1.12	0.988	0.996	1.01	0.981
HCC-827	0.633		0.754	0.547	0.847	0.482		0.542	0.399	0.623	0.654	0.528	0.585	0.593	0.662	0.964		0.92	0.973	0.938
NCI-H647	0.554	0.765	0.724	0.638	0.536	0.374	0.573	0.526	0.447	0.345	0.438	0.532	0.537	0.51	0.496	1.03	1.01	1.16	1.06	1.03
NCI-H2023	0.364	0.462	0.46	0.41	0.395	0.615	0.566	0.473	0.522	0.541	0.428	0.461	0.508	0.492	0.498	0.618	0.62	0.605	0.747	0.655
NCI-H520	0.198	0.243	0.183	0.147	0.176	0.586	0.548	0.351	0.189	0.205	0.283	0.321	0.352	0.298	0.345	0.829	0.72	0.395	0.456	0.281
RERF-LC-KJ	0.587	0.576	0.654	0.573	0.506	0.854	0.864	0.962	0.87	0.953	0.893	0.937	1	0.888	0.939	0.807	0.928	0.852	0.871	0.788
A-427	0.375	0.365	0.309	0.235	0.285	0.624	0.595	0.585	0.427	0.438	0.71	0.83	0.716	0.716	0.634	0.905	0.72	0.698	0.598	0.517
NCI-H441	0.621	0.626	0.758	0.564	0.62		0.484	0.52	0.429	0.436	0.539	0.708	0.559	0.481	0.345	0.601	0.841	0.778	0.691	0.783
NCI-H1703											0.428	0.405	0.434	0.27	0.322	0.694	1.17	0.796	0.638	0.863
NCI-H1792	0.684	0.731	0.762	0.581	0.416	0.359	0.361	0.342	0.215	0.17	0.319		0.347	0.408	0.315	0.939	0.999	1.08	0.99	0.93
Calu-6											0.602	0.621	0.597	0.592	0.568	0.737	0.86	0.948	0.745	0.781
SK-LU-1	0.333	0.4	0.362	0.272	0.35	0.446	0.669	0.454	0.52	0.229	0.477	0.42	0.488	0.521	0.465	0.905	0.906	1.01	0.926	0.787
PC-3 [JPC-3]	0.738		0.76	0.578	0.676	0.75		0.787		0.782	1.07	1.18	1.11	1.18	1.13	1.02		1.09	0.971	0.961
EMC-BAC-2	0.357	0.417	0.398	0.333	0.37	0.919	0.912	0.929	0.78	0.854	0.463	0.498	0.572	0.489	0.39	0.726	0.816	0.798	0.746	0.669
LK-2	0.18	0.181	0.155	0.121	0.176	0.788	0.726	0.561	0.32	0.268	0.739	0.798	0.758	0.702	0.348	0.206	0.227	0.214	0.224	0.231
NCI-H2126	0.864	0.705	0.664	0.721	0.687	0.609	0.531	0.615	0.629	0.567	0.932	0.946	0.841	0.904	0.799	1.12	1.01	0.997	0.955	1.05

Cell Line	relative viability ([1]; first compound 0.01 µM)	relative viability ([1]; first compound 0.03162 µM)	relative viability ([1]; first compound 0.1 µM)	relative viability ([1]; first compound 0.3162 µM)	relative viability ([1]; first compound 1 µM)	relative viability ([2]; first compound 0.01 µM)	relative viability ([2]; first compound 0.03162 µM)	relative viability ([2]; first compound 0.1 µM)	relative viability ([2]; first compound 0.3162 µM)	relative viability ([2]; first compound 1 µM)	relative viability ([3]; first compound 0.02 µM)	relative viability ([3]; first compound 0.06325 µM)	relative viability ([3]; first compound 0.2 µM)	relative viability ([3]; first compound 0.6325 µM)	relative viability ([3]; first compound 2 µM)	relative viability ([4]; first compound 0.01 µM)	relative viability ([4]; first compound 0.03162 µM)	relative viability ([4]; first compound 0.1 µM)	relative viability ([4]; first compound 0.3162 µM)	relative viability ([4]; first compound 1 µM)
NCI-H3122	0.91	1	0.941	1	1.05	0.204	0.223	0.245	0.19	0.264	0.552	0.679	0.568	0.556	0.619	0.229	0.271	0.282	0.295	0.272
NCI-H1975	0.71	0.923	0.736	0.629	0.646	0.324	0.515	0.391	0.31	0.25	0.728	0.743	0.805	0.768	0.794	1.03	0.979	1.1	1.07	0.948
NCI-H1944	0.364	0.425	0.436	0.388	0.329	0.371	0.452	0.403	0.387	0.382	0.384	0.391	0.333	0.412	0.418	0.994	1.07	1.13	1.09	1.19
LU99A	0.268	0.284	0.281	0.308	0.332	0.461	0.487	0.498	0.401	0.401	0.28	0.416	0.276	0.243	0.26	0.532	0.49	0.595	0.525	0.479
SW 1573	0.611	0.766	0.703	0.572	0.734	0.477	0.587	0.455	0.448	0.47	0.501	0.65	0.434	0.405	0.387	0.878	0.802	0.773	0.808	0.767
NCI-H2347	0.228	0.557	0.447	0.413	0.434	0.32	0.239	0.275	0.309	0.259	0.528	0.583	0.553	0.635	0.543	0.593	0.878	0.728	0.962	0.698
NCI-H2009	0.553	0.73	0.653	0.633	0.685	0.261	0.265	0.219	0.23	0.244	0.685	0.715	0.685	0.739	0.703	1	1.04	1.02	1.04	1.02
NCI-H1299											1.01	0.961	1.01	0.928	1.01	0.94	0.864	0.951	0.969	0.97
ABC-1	0.435	0.505	0.442	0.403	0.408						0.712	0.88	0.859	0.782	0.735	1.05	1.36	1.19	0.925	1.42
NCI-H1793	0.326	0.309	0.241	0.229	0.243	0.442	0.311	0.273	0.305	0.312	0.805	0.752	0.801	0.779	0.702					
NCI-H1648	0.245	0.292	0.246	0.26	0.235	0.411		0.474	0.393	0.417	0.795	0.547	0.886		0.563					
NCI-H1563	0.703	0.788	0.785	0.672	0.665											0.875	0.812	0.846	0.794	0.728
A549											0.284	0.133	0.366	0.335	0.12	0.73	0.811	0.758	0.843	0.783
NCI-H522	0.686	0.608	0.575	0.664	0.687	0.743	0.797	0.709	0.644	0.736	0.593	0.561	0.723	0.677	0.545					
NCI-H1623	0.45	0.384	0.414	0.386	0.452															
SW 900	0.602	0.604	0.545	0.368	0.358	0.723	0.679	0.655	0.735	0.568	0.789	0.769	0.884		0.727					
NCI-H1395	0.621	0.649	0.551	0.448	0.497	0.986	0.963	0.666	0.555	0.587	0.43	0.427	0.464	0.5	0.438					
IA-LM											0.404	1.02	0.797	0.836	0.871	0.91	0.996	0.657	0.908	0.793
EBC-1											0.626	0.84	0.754	0.76	0.723	0.198	0.201	0.17	0.199	0.197

From the supplement of paper PMC10307832
